According to PubChem BioAssay (NCI):
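Test compounds were applied to cells in 96-well plates for 48 hours at 5 doses. GI50 = concentration required for 50% inhibition of growth. TGI denotes the concentration required for complete inhibition of growth.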

How the values were obtained:
Assay in all cases: growth of human tumour cells (NCI), 48 h
A549 NSCLC = test system: A549 NSCLC
COLO 205 colon = test system: COLO 205 colon
IGROV1 ovarian = test system: IGROV1 ovarian
M19-MEL melanoma = test system: M19-MEL melanoma
SF-268 CNS = test system: SF-268 CNS
SK-MEL-2 melanoma = test system: SK-MEL-2 melanoma
SK-MEL-5 melanoma = test system: SK-MEL-5 melanoma
SR leukemia = test system: SR leukemia
UACC-62 melanoma = test system: UACC-62 melanoma
CAKI-1 renal = test system: CAKI-1 renal
NCI-H522 lung = test system: NCI-H522 lung
PC-3 prostate = test system: PC-3 prostate

Row | SMILES | TGI (A549 NSCLC) [µM] | TGI (COLO 205 colon) [µM] | TGI (IGROV1 ovarian) [µM] | TGI (M19-MEL melanoma) [µM] | GI50 (SF-268 CNS) [µM] | TGI (SF-268 CNS) [µM] | TGI (SK-MEL-2 melanoma) [µM] | GI50 (SK-MEL-5 melanoma) [µM] | TGI (SK-MEL-5 melanoma) [µM] | TGI (SR leukemia) [µM] | TGI (UACC-62 melanoma) [µM] | TGI (CAKI-1 renal) [µM] | TGI (NCI-H522 lung) [µM] | TGI (PC-3 prostate) [µM]
1 | O=c1cc(-c2ccc[nH]2)[nH]c2cc3c(cc12)OCO3 | > 100 | 60.3 | > 100 | > 100 | > 100 | > 100 | > 100 | 7.74 | > 100 | > 100 | > 100 |  |  | 
2 | CN(c1ccccc1Cl)S(=O)(=O)c1ccccc1 | > 100 | > 100 | > 100 |  |  | > 100 | > 100 |  | > 100 | > 100 | > 100 | > 100 | > 100 | > 100
3 | [N-]=[N+]=NC(c1cn(C2CC(O)C(CO)O2)c(=O)[nH]c1=O)C(I)I (centres undefined) | > 100 | > 100 | > 100 | > 100 |  | > 100 | > 100 |  | > 100 | > 100 | > 100 | > 100 |  | 
4 | CN(C)C(=O)CO/N=C1/C(c2c(O)[nH]c3ccccc23)=Nc2ccccc21 | > 100 | > 100 | > 100 |  |  | > 100 | > 100 |  | > 100 | > 100 | > 100 | > 100 | > 100 | > 100
5 | CCOc1ccc(C(c2c(O)c3ccccc3oc2=O)c2c(O)c3ccccc3oc2=O)cc1 | > 100 | > 100 | > 100 |  |  | > 100 | 59.1 |  | > 100 | 58.7 | > 100 | > 100 | > 100 | 84.3
6 | OC1NC2CC3NC(O)C(O)NC3CC2NC1O (centres undefined) | > 100 | > 100 | > 100 |  |  | > 100 | > 100 |  | > 100 | > 100 | > 100 | > 100 | > 100 | > 100
7 | CCC(C)N1CN(c2ccccc2)C2(CCN(CCCC(=O)c3ccc(F)cc3)CC2)C1=O (centres undefined) | 20.4 | 0.348 | 18.7 |  |  | 29 | 28.7 |  | 9.61 | 23.3 | 32.9 | 26.8 | 20.6 | 23.1
8 | Cc1cc2nc(NS(=O)(=O)c3cc(C)c(Cl)cc3S)[nH]c2cc1C | > 100 | > 100 | > 100 |  |  | > 100 | > 100 |  | > 100 | > 100 | > 100 | > 100 | > 100 | > 100
9 | CCOc1ccc(-n2c(=O)n3c(Nc4ccc(Cl)cc4)nc4c(c(=O)n(C)c(=O)n4C)n3c2=O)cc1 | > 100 | 46.4 | > 100 |  |  | > 100 | > 100 |  | 36 | 51.6 | 46.3 | > 100 | 32.8 | > 100
10 | CC1(C)OCC(C2OC(=O)C(OCc3ccccc3)=C2OCc2ccccc2)O1 (centres undefined) | > 100 | 50.6 | > 100 |  |  | > 100 | 61 |  | 32.3 | > 100 | > 100 | > 100 | 78.4 | 78.1
11 | O=C(O)C1Cc2ccccc2OC1=O (centres undefined) | > 100 | > 100 | > 100 |  |  | > 100 | > 100 |  | > 100 | > 100 | > 100 | > 100 | > 100 | > 100
12 | Cc1ccc(C(=O)NC(C)C)cc1N=NN(C)C | > 100 |  | > 100 | > 100 |  | > 100 | > 100 |  | > 100 |  | > 100 | > 100 | > 100 | 
13 | COc1ccc2c(c1)-c1c(c3ccccc3n1CCN1CCOCC1)CC2 | > 100 | 32.5 | 38.5 |  |  | 76.9 | 28.9 |  | 31.3 | 53.3 | 49.4 | 81.9 | 37.3 | 45.3
14 | Cc1cc(C)c(N)c(C)c1N | > 100 | > 100 | > 100 | > 100 |  | > 100 | > 100 |  | > 100 | > 100 | > 100 |  | > 100 | 
15 | Cn1c2cc(Cl)ccc2c2ccc3c(c21)C(=O)C=CC3=O | > 100 | 20.7 | > 63.1 |  |  | > 82.6 | > 100 |  | > 100 | 26.1 | > 31.6 | 22.1 | 22.9 | > 82
16 | O=C(O)[C@H]1NC[C@@H]2ON=C(Br)[C@@H]21 | > 100 | > 100 | > 100 |  |  | > 100 | > 100 |  | > 100 | > 100 | > 100 | > 100 | > 100 | > 100
17 | COC(=O)C1=C2Nc3ccccc3C23CCN2C(O)C4(CC5CC67CCOC6CCN6CCC8(c9cccc(OC)c9N(C4)C58O)C67)C4OCCC4(C1)C23 (centres undefined) | > 100 | > 100 | > 100 |  |  | > 100 | > 100 |  | > 100 | > 100 | > 100 | > 100 | > 100 | > 100
18 | CC[S+](C)c1ccc(-c2c3nc(c(-c4ccc([S+](C)CC)cc4)c4ccc([nH]4)c(-c4ccc([S+](C)CC)cc4)c4nc(c(-c5ccc([S+](C)CC)cc5)c5ccc2[nH]5)C=C4)C=C3)cc1 (centres undefined) | > 100 | > 100 |  | > 100 |  | > 100 | 77.5 |  | > 100 | 87.5 | 54.9 | > 100 | > 100 | 
19 | COc1ccc2c(c1)Cc1c-2[nH]c2cc3c(cc2c1=O)OCO3 | > 100 | 25.5 | 59.5 | 34.3 |  | > 100 | 21.8 |  | 19.4 |  | 22.8 | > 100 | 35.1 | 
20 | CCC(c1nc2ccccc2c(=O)n1NC(=O)C(C)(C)C)C1(O)CCCCC1 (centres undefined) | > 100 | > 100 | > 100 |  |  | > 100 | > 100 |  | > 100 | > 100 | > 100 | > 100 | > 100 | > 100
